The values that follow come from patent publication US20260207666A1, “CD38 AS INTEGRATION SITE FOR ENHANCED FUNCTION OF GENE-MODIFIED IMMUNE CELLS” (RESEARCH INSTITUTE AT NATIONWIDE CHILDREN'S HOSPITAL, priority 2022, published 2026).

“Also recorded” adds a separate entry of the source.

One data set has as its system human primary NK cells. Put plainly: CD38 and CD38-CAR expression by flow cytometry in NK cells. It counts as cell-based. The note with it: CAR inserted at CD38 locus, 75,000 vg/cell AAV6, seven days post-transduction (FIG. 18C). The procedure:
CD38^KO/CD38-CAR T cells or NK cells were generated by electroporation of HiFi Cas9 Nuclease V3 (Integrated DNA Technologies, Coralville, IA) and gRNA targeting exon 1 of the CD38 gene (5-[…]) (SEQ ID NO: 1). Knock-out cells were then returned to culture media and transduced within 30 minutes with 75,000 vg/cell of Adeno-Associated Virus Type 6 (AAV6, Andelyn Biosciences) vector containing the CAR expression cassette with CD38 homology arms.
(§1) Cells were stained in PBS buffer containing 2% FBS using anti-CD38/PE (Miltenyi Biotec, clone REA572), CD38 Fc Chimera Protein (R&D Systems, rhCD38) followed by secondary staining with Alexa Fluor 647 AffiniPure Goat Anti-Human IgG (Jackson ImmunoResearch), and Tonbo Ghost Dye 450 (Tonbo Biosciences, San Diego, CA, USA). See representative gating strategy (FIG. 25).
(In general: In flow cytometry, cells or beads pass a laser one at a time.)

Another data set has as its system human primary T cells. Put plainly: CD38 and CD38-CAR expression by flow cytometry in T cells. The note with it: T cells, 75,000 vg/cell AAV6 (FIG. 22B). In kind it is cell-based. The procedure:
Human primary T cells were isolated from donor buffy coats using RosetteSep™ Human T Cell Enrichment Cocktail (Stem Cell Technologies, Vancouver, BC, Canada) as described for NK cells. Isolated T cells were stimulated on day 0 with Human T-Activator CD3/CD28 (Thermo Fisher Scientific). Stimulated T cells were cultured in RPMI 1640 media plus Glutamax, 10% FBS at a concentration of 1.0e6 cells/mL and supplemented with 50 IU/mL human recombinant IL-7 and IL-15 (Biolegend, San Diego, CA) every 2-3 days.
Two days after cytokine activation the T cells were electroporated and transduced as described below. After transduction the cells were expanded in RPMI 1640 media plus Glutamax, 10% FBS at 1.0e6 cells/mL with IL-7 and IL-15 supplemented at 50 IU/mL every 2-3 days for up to 10 days.
CD38^KO/CD38-CAR T cells or NK cells were generated by electroporation of HiFi Cas9 Nuclease V3 (Integrated DNA Technologies, Coralville, IA) and gRNA targeting exon 1 of the CD38 gene (5-[…]) (SEQ ID NO: 1). Knock-out cells were then returned to culture media and transduced within 30 minutes with 75,000 vg/cell of Adeno-Associated Virus Type 6 (AAV6, Andelyn Biosciences) vector containing the CAR expression cassette with CD38 homology arms. […]

The subject of another data set is MV4-11. Put plainly: 4-hour calcein AM cytotoxicity assay. The following applies: MV4-11 (AML), 4-hour assay. In kind it is cell-based, human. The procedure: (§2) CSTX002 feeder cells, derived from K562 and transduced to express membrane-bound IL-21 and 4-1BBL (referred to hereafter as FC21) were cultured in RMPI 1640 media containing 10% fetal bovine serum (FBS) at 37° C., 5% CO2. FC21 were treated with 100 Gy x-ray irradiation (Faxitron, Tucson AZ) prior to coculture with NK cells. Human AML cell line MV4-11, MM cell lines MM1S and H929, and BL cell lines Daudi and Raji were purchased from American type culture collection (ATCC). Primary human AML cells (AML10) were obtained from a pediatric patient with relapsed M5 AML and passaged in NOD-SCID mice. Primary human AML, Pre-T ALL, T-PLL, MM, and HSTCL were obtained from the Ohio State University Comprehensive Cancer Center Leukemia Tissue Bank. Tumor cell lines were cultured in RPMI 1640 media plus Glutamax, 10% FBS and routinely tested for mycoplasma contamination. Anonymized human buffy coats were obtained from the American Red Cross of Ohio (Columbus, OH, USA) as healthy donor lymphocyte source material, designated not human subjects research by the institutional review board.
(§3) 4-hour cytotoxicity assays were performed using calcein AM (Fisher Scientific, Hampton, NH). Briefly, target tumor cells were stained with 2 μg/mL calcein AM and co-cultured with effector cells at the indicated Effector:Target ratios. After 4 hours, culture supernatant was assessed by fluorimetry and percent specific lysis calculated using maximum and minimum controls. Cytotoxicity is plotted as percent specific lysis.

The subject of the next data set is Raji. Put plainly: 4-hour calcein AM cytotoxicity assay. In kind it is cell-based, human. The following applies: Raji (BL), 4-hour assay. The procedure: as §2, §3
Another data set concerns H929. Put plainly: 4-hour calcein AM cytotoxicity assay. It counts as cell-based, human. The note with it: H929 (MM), 4-hour assay. The procedure:
as §2, §3

In another data set the test system is CD38^KO NK cells. Put plainly: Effect of ATRA on NK cell function or viability. In kind it is cell-based, human.
The test system of a further data set is MM cell lines. The data set is described as follows: CD38 surface expression after ATRA treatment (flow cytometry). It counts as cell-based, human. The note with it: intermediate to high CD38-expressing MM cell lines, 10 nM ATRA for 48 hours.
Text: as §1
(§4) To further augment the antitumor activity of the CD38-CAR NK cells, we explored combination therapy with ATRA. ATRA is a differentiation agent that upregulates CD38 expression in many cell types. Across cell lines of AML, MM, and BL, we observed variable responses in CD38 expression after treatment with 10 nM ATRA for 48 hours (FIG. 20A). […] Thus, ATRA appears to have a cell line dependent effect on the increase in CD38 surface density and sensitivity to CAR NK cell killing (FIG. 20A, 20C).

The test system of the next data set is BL. The data set is described as above. The note with it: high CD38-expressing BL, 10 nM ATRA for 48 hours. In kind it is cell-based, human.
Text: as §1, §4

The next data set concerns AML cell lines. The description is as above. In kind it is cell-based, human. The note with it: AML cell lines with lowest baseline CD38, 10 nM ATRA for 48 hours.
Text: as §1, §4

The next data set deals with primary AML cells. The data set is described as follows: Mass cytometry lysis assay. In kind it is cell-based, human. The note with it: with ATRA, prior to co-culture with NK cells.

Description for primary AML cells: A primary AML patient cell sample (OSU leukemia tissue bank) was cultured in a 6-well plate (pre-coated with rat tail collagen [Corning]) in serum free media (SFEM) supplemented with a cytokine cocktail (IL-6, IL-3, FLT3, GMCSF, GCSF, and TPO at 6.66 ng/mL, EPO at 3.33 ng/mL, SCF at 20 ng/mL; Stem Cell Technologies). The primary AML samples were cultured for 24 hours with or without 10 nM ATRA. After 24 hours, wild-type or CD38^KO/CD38 CAR-NK cells were added at a ratio of 1:1 and co-cultured for 24 hours. Control wells were cultured in parallel. Cell were stained and events were acquired on the Helios CyTOF system (Fluidigm, Toronto, Canada). Cells were identified using markers and analyzed using SPADE.

In the case of “V4: Isatuximab-based anti-CD38 CAR construct with reversed heavy/light chain order, SEQ ID NO: 29/30”, the “median AAV6 transduction efficiency” value in the data set on human primary NK cells came out at 61.9%; with human primary T cells, 35.9%. Besides, the “cytotoxicity compared to wildtype cells” value in the data set with MV4-11, with Raji and in the data set on H929 was “significant increase in cytotoxicity” throughout.

Regarding “V3: Isatuximab-based anti-CD38 second-generation CAR construct with CD3ζ, 41BB and CD8α TM/hinge, SEQ ID NO: 27/28”, the “median AAV6 transduction efficiency” value is 60.7% in the data set with human primary NK cells and 44.4% in the data set with human primary T cells. Moreover, the “cytotoxicity compared to wildtype cells” value in the data set with MV4-11, with Raji and in the data set on H929 was “significant increase in cytotoxicity” throughout.

In the case of `CC1=C(/C=C/C(C)=C/C=C/C(C)=C/C(=O)O)C(C)(C)CCC1` [ATRA, all-trans retinoic acid], the “adverse effect on function or viability of CD38^KO NK cells” value in the data set with CD38^KO NK cells is on record as “did not have any adverse effect”. Moreover, the “CD38 expression after ATRA treatment” value in the data set with MM cell lines is reported as “minor increase”; with BL it was “no observable increase”; in the data set with AML cell lines, “greatest proportional increase; also recorded: greatest increases”. Besides, in the data set on primary AML cells, the “live cell population of primary AML cells” value stood at 77.5%.
